Tests used:
Assay type in all cases: biochemical
amylase = experiment: Amylase activity retention in detergent use solution (4000 ppm, 5 GPG water; ethylidene substrate EPS, HEPES buffer pH 8.0); conditions: base formula
Description: (§1) The enzyme activities in the detergents with different phosphonate levels were tested at 4000 ppm in 5 grains per gallon (GPG) water at 120° F. with various time points collected up to 4 hours, after a use solution was generated from the detergent composition. During the tests, the samples at different time points were collected and immediately frozen in an acetone/dry ice bath and stored in −80° C. before the activity of the enzyme was evaluated. For the use of such an assay, t=0 min was the reference point for 100% enzyme activity.
(§2) Assays of enzyme activity in formulations (% retention) were conducted to simulate a presoak condition in a beaker using the chemistry, temperature, and pH conditions relevant to manual warewash or presoak applications. Enzyme activity is an indicator of the stability of the enzyme in the detergent, specifically in an aqueous use solution within a sump (which is under conditions of high pH, temperature and dilution).
(§3) Enzyme activity under presoak or manual warewash conditions was traced quantitatively using a standard protease assay. Samples were prepared under bench top conditions, whereby the use solution from a detergent composition or detergent was obtained and maintained at a presoak or manual warewash temperature in a stirring water bath. After the time course for assessing enzyme stability is initiated, aliquots were taken at various time points and flash-frozen. A time=0 sample was prepared for each series by dissolving the detergent formulation at room temperature, mixing thoroughly, and flash freezing. Samples were thawed and diluted as necessary in an assay buffer usually for use in the protease assay. A glycine buffer at pH 9.0 is used here. The assay monitored the direct reaction of the protease on a small, commercially available peptidyl substrate, with liberation of the product providing correlation to the active enzyme content. The product was detected using a plate reader with an appreciable dynamic range (upper absorbance limit of the instrument >3.5). Enzyme activity levels were assessed relative to a calibration curve with average values for replicate tests used to map protease stability under presoak or manual warewash use conditions. Enzyme retention at each time point was calculated as the % enzyme activity relative to the time=0 sample.
(§4) The analysis by lipase and amylase assay was conducted similarly, except with a different substrate and buffers. For lipase activity, the substrate is p-nitrophenyl valerate, and for amylase, the substrate is an ethylidene substrate (EPS). The buffer used in lipase assay is TRIS (Tris(hydroxymethyl)aminomethane) buffer at pH 8.0, and in amylase assay HEPES (4-(2-hydroxyethyl)-1-piperazineethanesulfonic acid) buffer at pH 8.0.

lipase = experiment: Lipase activity retention in detergent use solution (4000 ppm, 5 GPG water; p-nitrophenyl valerate, TRIS buffer pH 8.0); conditions: base formula
Description: as §1, with “activities in the detergents with different phosphonate levels were tested at 4000 ppm in 5 grains per gallon (GPG) water at 120° F. with various time points” left out
as §2, §3, §4

[1] = test system: enzyme (protease, amylase, lipase); experiment: Overall effects of phosphonates on enzyme activity (Table 3); conditions: overall effect of the phosphonate on enzyme activity in the detergent use solution
Description: as §1, §2
The relative enzyme activities in a use solution of the tested detergent compositions containing a different phosphonate at different concentrations over a period time are listed in Table 4A-Table 4E, Table 5A-Table 5E, and Table 6A-Table 6F.

[2] = phosphonate 0.6 wt-%, use solution at 120º F., time 0 min
[3] = phosphonate 0.6 wt-%, use solution at 120º F., time 5 min
[4] = phosphonate 0.6 wt-%, use solution at 120º F., time 10 min
[5] = phosphonate 0.6 wt-%, use solution at 120º F., time 20 min
[6] = phosphonate 0.6 wt-%, use solution at 120º F., time 40 min
[7] = phosphonate 0.6 wt-%, use solution at 120º F., time 60 min
[8] = phosphonate 0.6 wt-%, use solution at 120º F., time 90 min
[9] = phosphonate 0.6 wt-%, use solution at 120º F., time 120 min
[10] = phosphonate 0.6 wt-%, use solution at 120º F., time 150 min
[11] = phosphonate 0.6 wt-%, use solution at 120º F., time 180 min
[12] = phosphonate 0.6 wt-%, use solution at 120º F., time 210 min
[13] = phosphonate 0.6 wt-%, use solution at 120º F., time 240 min

Structure (SMILES): NCP(=O)(O)O [AMPA, Aminomethyl phosphonic acid]
- Relative Amylase Enzyme Activity (amylase; phosphonate 0.3 wt-%, use solution at 120° F., time 0 min): 82.13%
- Relative Amylase Enzyme Activity (amylase; phosphonate 0.3 wt-%, use solution at 120° F., time 5 min): 100.00%
- Relative Amylase Enzyme Activity (amylase; phosphonate 0.3 wt-%, use solution at 120° F., time 10 min): 95.55%
- Relative Amylase Enzyme Activity (amylase; phosphonate 0.3 wt-%, use solution at 120° F., time 20 min): 101.29%
- Relative Amylase Enzyme Activity (amylase; phosphonate 0.3 wt-%, use solution at 120° F., time 40 min): 80.17%
- Relative Amylase Enzyme Activity (amylase; phosphonate 0.3 wt-%, use solution at 120° F., time 60 min): 80.10%
- Relative Amylase Enzyme Activity (amylase; phosphonate 0.3 wt-%, use solution at 120° F., time 90 min): 87.43%
- Relative Amylase Enzyme Activity (amylase; phosphonate 0.3 wt-%, use solution at 120° F., time 120 min): 92.65%
- Relative Amylase Enzyme Activity (amylase; phosphonate 0.3 wt-%, use solution at 120° F., time 150 min): 93.49%
- Relative Amylase Enzyme Activity (amylase; phosphonate 0.3 wt-%, use solution at 120° F., time 180 min): 102.37%
- Relative Amylase Enzyme Activity (amylase; phosphonate 0.3 wt-%, use solution at 120° F., time 210 min): 103.78%
- Relative Amylase Enzyme Activity (amylase; phosphonate 0.3 wt-%, use solution at 120° F., time 240 min): 102.93%
- Relative Amylase Enzyme Activity (amylase; [2]): 100.00%
- Relative Amylase Enzyme Activity (amylase; [3]): 91.80%
- Relative Amylase Enzyme Activity (amylase; [4]): 92.54%
- Relative Amylase Enzyme Activity (amylase; [5]): 85.05%
- Relative Amylase Enzyme Activity (amylase; [6]): 94.06%
- Relative Amylase Enzyme Activity (amylase; [7]): 86.14%
- Relative Amylase Enzyme Activity (amylase; [8]): 90.32%
- Relative Amylase Enzyme Activity (amylase; [9]): 93.67%
- Relative Amylase Enzyme Activity (amylase; [10]): 92.05%
- Relative Amylase Enzyme Activity (amylase; [11]): 81.43%
- Relative Amylase Enzyme Activity (amylase; [12]): 94.06%
- Relative Amylase Enzyme Activity (amylase; [13]): 81.87%
- Relative Amylase Enzyme Activity (amylase; phosphonate at 0.1% elemental phosphorus level, use solution at 120º F., time 0 min): 97.43%
- Relative Amylase Enzyme Activity (amylase; phosphonate at 0.1% elemental phosphorus level, use solution at 120º F., time 5 min): 100.00%
- Relative Amylase Enzyme Activity (amylase; phosphonate at 0.1% elemental phosphorus level, use solution at 120º F., time 10 min): 102.34%
- Relative Amylase Enzyme Activity (amylase; phosphonate at 0.1% elemental phosphorus level, use solution at 120º F., time 20 min): 105.43%
- Relative Amylase Enzyme Activity (amylase; phosphonate at 0.1% elemental phosphorus level, use solution at 120º F., time 40 min): 92.18%
- Relative Amylase Enzyme Activity (amylase; phosphonate at 0.1% elemental phosphorus level, use solution at 120º F., time 60 min): 92.23%
- Relative Amylase Enzyme Activity (amylase; phosphonate at 0.1% elemental phosphorus level, use solution at 120º F., time 90 min): 96.88%
- Relative Amylase Enzyme Activity (amylase; phosphonate at 0.1% elemental phosphorus level, use solution at 120º F., time 120 min): 92.96%
- Relative Amylase Enzyme Activity (amylase; phosphonate at 0.1% elemental phosphorus level, use solution at 120º F., time 150 min): 103.38%
- Relative Amylase Enzyme Activity (amylase; phosphonate at 0.1% elemental phosphorus level, use solution at 120º F., time 180 min): 102.05%
- Relative Amylase Enzyme Activity (amylase; phosphonate at 0.1% elemental phosphorus level, use solution at 120º F., time 210 min): 91.32%
- Relative Amylase Enzyme Activity (amylase; phosphonate at 0.1% elemental phosphorus level, use solution at 120º F., time 240 min): 99.25%
- Relative Lipase Enzyme Activity (lipase; [2]): 100.00%
- Relative Lipase Enzyme Activity (lipase; [3]): 80.17%
- Relative Lipase Enzyme Activity (lipase; [4]): 64.48%
- Relative Lipase Enzyme Activity (lipase; [5]): 49.45%
- Relative Lipase Enzyme Activity (lipase; [6]): 37.77%
- Relative Lipase Enzyme Activity (lipase; [7]): 26.82%
- Relative Lipase Enzyme Activity (lipase; [8]): 19.59%
- Relative Lipase Enzyme Activity (lipase; [9]): 15.84%
- Relative Lipase Enzyme Activity (lipase; [10]): 15.01%
- Relative Lipase Enzyme Activity (lipase; [11]): 13.23%
- Relative Lipase Enzyme Activity (lipase; [12]): 12.05%
- Relative Lipase Enzyme Activity (lipase; [13]): 11.16%
- Relative Lipase Enzyme Activity (lipase; phosphonate at 0.1% elemental phosphorus, at 120º F. or at room temperature (as titled), time 0 min): 100.00%
- Relative Lipase Enzyme Activity (lipase; phosphonate at 0.1% elemental phosphorus, at 120º F. or at room temperature (as titled), time 5 min): 79.03%
- Relative Lipase Enzyme Activity (lipase; phosphonate at 0.1% elemental phosphorus, at 120º F. or at room temperature (as titled), time 10 min): 77.51%
- Relative Lipase Enzyme Activity (lipase; phosphonate at 0.1% elemental phosphorus, at 120º F. or at room temperature (as titled), time 20 min): 62.55%
- Relative Lipase Enzyme Activity (lipase; phosphonate at 0.1% elemental phosphorus, at 120º F. or at room temperature (as titled), time 40 min): 53.26%
- Relative Lipase Enzyme Activity (lipase; phosphonate at 0.1% elemental phosphorus, at 120º F. or at room temperature (as titled), time 60 min): 44.19%
- Relative Lipase Enzyme Activity (lipase; phosphonate at 0.1% elemental phosphorus, at 120º F. or at room temperature (as titled), time 90 min): 33.99%
- Relative Lipase Enzyme Activity (lipase; phosphonate at 0.1% elemental phosphorus, at 120º F. or at room temperature (as titled), time 120 min): 28.67%
- Relative Lipase Enzyme Activity (lipase; phosphonate at 0.1% elemental phosphorus, at 120º F. or at room temperature (as titled), time 150 min): 23.85%
- Relative Lipase Enzyme Activity (lipase; phosphonate at 0.1% elemental phosphorus, at 120º F. or at room temperature (as titled), time 180 min): 16.98%
- Relative Lipase Enzyme Activity (lipase; phosphonate at 0.1% elemental phosphorus, at 120º F. or at room temperature (as titled), time 210 min): 17.74%
- Relative Lipase Enzyme Activity (lipase; phosphonate at 0.1% elemental phosphorus, at 120º F. or at room temperature (as titled), time 240 min): 16.10%
- Stability (effects on enzyme activity) [1]: Yes

— US11807835B2, “Detergent compositions containing a stabilized enzyme by phosphonates” (ECOLAB USA INC., priority 2016, dated 2023)
